Source: ChEMBL document CHEMBL1130780, “Synthesis of a cosalane analog with an extended polyanionic pharmacophore conferring enhanced potency as an anti-HIV agent” (Bioorg Med Chem Lett, 1998)

Tests used:
[1] = The compound was tested for inhibitory activity against gp120 binding to CD4 of peripheral blood lymphocytes (PBL); type: functional, Homo sapiens
CEM-SS [2] = experiment: Inhibitory activity against cytopathic effect of HIV-IIIB strain in CEM-SS cells.; type: functional, cell-based; conditions: Homo sapiens
CEM-SS [3] = experiment: Inhibitory activity against cytopathic effect of VIHU(NSI) clinical isolate in CEM-SS cells.; type: functional, cell-based; conditions: Homo sapiens
CEM-SS [4] = experiment: The compound was tested for inhibition of HIV-1 attachment to CEM-SS cells.; type: functional, cell-based; conditions: Homo sapiens
[5] = The compound was tested for inhibitory against fusion of HL-2/3 cells towards HeLa-CD4-LTR-beta-gal cells.; type: functional, cell-based, Homo sapiens
CEM-SS [6] = experiment: Inhibitory activity against cytopathic effect of HIV-1RF in CEM-SS cells.; type: functional, cell-based; conditions: Homo sapiens

`CC(C)CCCC(C)[C@H]1CC[C@H]2[C@@H]3CCC4C[C@@H](CCC=C(c5cc(Cl)c(O)c(C(=O)O)c5)c5cc(Cl)c(O)c(C(=O)O)c5)CC[C@]4(C)[C@H]3CC[C@]12C` (stereo partly specified) showed an IC50 [1] of 7.8 µM, an EC50 (CEM-SS [2]) of 3.4 µM and an EC50 (CEM-SS [3]) of 80.2 µM.

`CC(C)CCCC(C)[C@H]1CC[C@H]2[C@@H]3CCC4C[C@@H](CCC=C(c5cc(Cl)c(OCc6ccc(C(=O)O)cc6)c(C(=O)O)c5)c5cc(Cl)c(OCc6ccc(C(=O)O)cc6)c(C(=O)O)c5)CC[C@]4(C)[C@H]3CC[C@]12C` (stereo partly specified) showed an IC50 (CEM-SS [4]) of 72 µM, an IC50 [5] of 2.7 µM and an EC50 (CEM-SS [6]) of 0.55 µM.
